Source: patent US8729047B2, “Compositions for inhibiting redox-sensitive GTPases” (Board of Regents, The University of Texas System, priority 2010, dated 2014)
Where two headings read alike, the source gives them in different places.

Columns and labels:
HCCLM3 cells = experiment: QCM Cell Invasion Assay, time-dependent motility; format: cell-based, human; conditions: 6-TG in combination with a NO donor for 3 days; FIG. 14B
Experimental: (§1) FIG. 14. Determination of cell invasiveness in the presence and absence of thiopurines and/or redox agents.
(§2) The Colorimetric-based QCM Cell Invasion Assay kit (Millipore, Billerica, Mass.) was used for the time-dependent cell migration assay of SUM149, SW480, and HCCLM3 cells. Serum-free sample cells (2×10^5 cells/mL) were prepared as indicated in the section of the matrigel invasion assay. The serum-free sample cells (0.25 mL) were loaded to the rehydrated upper chamber. […] Serum-free or serum-containing media (0.5 mL) was added to the lower chamber. The plate covered was then incubated for one to four days at 37° C. in a 10% CO2 incubator. […] The fraction of cells migrated from the upper chamber to the lower chamber was then measured colorimetrically according to the procedure provided by the manufacture.

SW480 cells = experiment: QCM Cell Invasion Assay, time-dependent motility; format: cell-based, human; conditions: 6-TG in combination with a NO donor for 3 days; FIG. 14B
Experimental: as §1, §2

Ras [1] = target: T1, Ras (Homo sapiens, UniProt P01112, G12V); experiment: Ras expression and activity in T24 / HT1080 cells; format: cell-based; conditions: T24 (or HT1080) cells, 6-TG 1 μM every 48 h and DETA/NO 10 μM every 20 h, longer than 10 days; FIG. 8
T1 construct: endogenous in cells; text also names HT1080
Experimental: (§3) FIG. 8. Examination of Ras and Raf-1 activity in T24 cells treated with various reagents. […] The total Raf-1 expression also was determined using an anti-Raf-1 antibody. Actin expression in cells was shown as controls.

RhoC [2] = target: T2, RhoC (Homo sapiens, UniProt P08134); experiment: RhoC expression (Western) and RhoC activity assay in cells; format: cell-based; parameters: endogenous in cells; host or cells: SUM149, SUM102, SW480, HCCLM3 (endogenous); HME-RhoC (transfected with wild type RhoC)
T2 sequence (P08134 whole entry): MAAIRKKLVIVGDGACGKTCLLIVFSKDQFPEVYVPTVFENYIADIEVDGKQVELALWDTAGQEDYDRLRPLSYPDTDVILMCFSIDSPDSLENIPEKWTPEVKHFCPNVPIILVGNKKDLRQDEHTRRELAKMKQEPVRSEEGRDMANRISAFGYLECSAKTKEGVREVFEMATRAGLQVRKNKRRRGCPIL
Experimental: FIG. 14. Determination of cell invasiveness in the presence and absence of thiopurines and/or redox agents. […] Western blot analysis representing the total expression of RhoC in these cells also is shown. (B) Experimental procedures for the determination of the time-dependent motility of cells using the QCM Cell Invasion Assay kit in the presence and absence of 6-TG and DETA/NO are described elsewhere herein.
Cells were lysed in an extraction buffer containing 50 mM NaCl, 5 mM MgCl2, 1 mM ethylenediaminetetraacetic acid (EDTA), 0.1 mM diethylenetriaminepentaacetic acid (DTPA), and 0.1% NP40 in 150 mM TrisHCl (pH 8.0). The content of […] RhoC in cells then was determined by using Western analysis that relies on a monoclonal anti-RhoC antibody (Biocompare, South San Francisco, Calif.). To determine RhoC activity, the colorimetric RhoA activation assay Biochem Kit (Cytoskeleton, Denver, Colo.) was used essentially as described in the previous study (Hall et al. Neoplasia 10, 797-803 (2008)) except that the RhoC specific antibody (vide supra), instead of the RhoA antibody included in the assay kit, was used for this analysis.

Ras [3] = experiment: Ras expression and activity in T24 / HT1080 cells; format: cell-based, human; conditions: T24 and HT1080 cells, 8-TG 1 μM with NO donor; not shown
Experimental: as §3

C20S RhoC = target: T3, C20S RhoC (Homo sapiens, UniProt P08134, C20S); experiment: Titration of .NO2-treated RhoC-6-TGDP complex with [3H]GDP with/without DTT (FIG. 16D); format: binding; conditions: .NO2-treated 6-TGDP C20S RhoC complex, read-out: appKD for [3H]GDP
T3 construct: made in house; host or cells: E. coli
T3 sequence (P08134 whole entry C20S): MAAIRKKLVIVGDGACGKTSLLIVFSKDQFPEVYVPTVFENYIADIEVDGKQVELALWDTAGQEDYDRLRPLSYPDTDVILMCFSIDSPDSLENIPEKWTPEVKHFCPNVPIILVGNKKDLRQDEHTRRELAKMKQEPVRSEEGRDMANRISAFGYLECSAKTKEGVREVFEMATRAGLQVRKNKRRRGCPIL
Experimental: (§4) FIG. 16. Kinetic properties of RhoC with 6-TGDP in the presence or absence of a redox agent. All kinetic analyses are described elsewhere herein. (A) ^appKD values of Rac1, RhoA, RhoC, and RhoC C20S for 6-TGDP were estimated to be 7.9, 11.6, 11.8, and 11.2 μM, respectively. ^trueKD values of Rac1, RhoA, and RhoC for 6-TGDP were then calculated to be 5.1, 10.8, 11.1, and 10.5 μM, respectively, by using a compensation equation, ^trueKD for 6-TGDP=^appKD for 6-TGDP/(1+[[^3H]GDP]/^trueKD for GDP) (Heo, J., and Hong, I. (2010) Biochemistry 49, 3965-3976), in conjunction with the values given. […] The GDP dissociation rates from RhoC C20S by NO, .NO2, and N2O3 were estimated to be 0.02×10^−3, 0.05×10^−3, and 0.04×10^−3 s^−1, respectively. […] (D) ^appKD values of RhoC for [^3H]GDP in the presence or absence of DTT were estimated to be 22.4 μM and […], respectively. ^appKD values of C20S RhoC for [^3H]GDP in the presence or absence of DTT were determined to be 24.8 μM and 25.2 μM, respectively. The regression values associated with these fits were >0.8595. […]
(§5) (d) The effect of .NO2 on the dissociation of 6-TGDP from RhoC was determined by treating the RhoC-6-TGDP complex titration with various concentrations of [^3H]GDP in the presence and absence of a reducing agent of either dithiothreitol (DTT) or β-mercaptoethanol. […]

Ras [4] = target: Ras (Homo sapiens, UniProt P01112); conditions: determined previously (Lenzen et al.; Heo et al.); read-out: trueKD GDP; cited from earlier work
RhoC [5] = target: T2, RhoC; experiment: Titration of .NO2-treated RhoC-6-TGDP complex with [3H]GDP with/without DTT (FIG. 16D); format: binding; parameters: made in house; host or cells: E. coli; conditions: presence of DTT; .NO2-pretreated 6-TGDP-loaded RhoC; read-out: appKD for [3H]GDP
Experimental: as §4, §5

Q: Which results are given for `Nc1nc2nc[nH]c2c(=S)[nH]1` [6-TG, 6-thioguanine]?
A: most of the invasive motility (HCCLM3 cells): terminated; most of the invasive motility (SW480 cells): terminated; Ras inactivation (Ras [1]): significant amount of Ras (per cell mass) was inactivated; level of total RhoC expression (RhoC [2]; SUM149 and HME-RhoC cells, 6-TG three or more days): not changed; RhoC activity (RhoC [2]; SUM149 and HME-RhoC cells, both 6-TG and DETA/NO (or GSNO), three days): essentially no RhoC activity was detected; activity of RhoC (RhoC [2]; SW480 and HCCLM3 cells, 6-TG and a NO donor, not shown): drastically diminished

Q: Which “expression and activity of Ras” value (Ras [3]) does the source give for `Nc1nc2[nH]c(S)nc2c(=O)[nH]1` [8-TG, 2-amino-8-mercapto-1H-purin-6(9H)-one] here?
A: The value was “virtually unchanged”.

Q: Which results are given for `Nc1nc2c(ncn2[C@@H]2O[C@H](COP(=O)(O)OP(=O)(O)O)[C@@H](O)[C@H]2O)c(=O)[nH]1` [GDP]?
A: Kd (C20S RhoC; absence of DTT): 25.2 µM; Kd (C20S RhoC; presence of DTT): 24.8 µM; Kd (Ras [4]): 9 pM; Kd (RhoC [5]): 22.4 µM
